Values joined by “and” are separate entries in the source; they are usually repeats but may differ in a detail not shown here. Equal entries are not always repeated. Where two headings read alike, the source gives them in different places. Marks after values point to notes of the source that are not given here.
What was measured:
[1] = Acute toxicity, intraperitoneal administration (mortality, LD50, body weight, dietary); format: in vivo, mice; settings: both sexes, mouse, in vivo, ip, mice, i.p., observed 7 days
Procedure: (§1) Acute Toxicity • Compounds PDHM/TDHM.
(§2) 140 mice were divided into 7 groups (n=20), each group include 10 males and 10 females, they were treated with different concentrations of dosages and observed for 7 days. Specific experimental groups and experimental results were noted below. Note: Section 1-6 group compound are PDHM groups, and group 7 is a negative control group.
(§3) 140 mice were divided into 7 groups (n=20), each group include 10 males and 10 females, they were treated with different concentrations of dosage and observed for 7 days. Note: Section 1-6 group compound are PDHM groups, and group 7 is a negative control group.

mice [2] = assay: as above; format: in vivo; settings: for Dead number: 20 mice; for Dead number / mortality: 7 days
Procedure: as §1, §2, §3

Balb/C mice [3] = assay: Plasma EtOH concentration assay; format: in vivo; settings: intragastric 2 mg/kg
Procedure: Plasma EtOH Concentration Assay. • Blood samples from the tail vein of mice at different time points (0, 15, 30, 45, 60, 90, 120, 240, 480 and 720 minutes) after EtOH (30% ethanol, 0.2 ml/kg bw) or TDHM (2 mg/kg bw), PDHM (2 mg/kg bw) or DHM (2 mg/kg bw) gavage were collected for plasma EtOH concentrations (plasma [EtOH]) assays. (“BW” or “bw”: body weight) • Briefly, the Balb/C mice were put into a restraint tube and the tail was warmed at 37° C. The tail vein at the tip of the tail was punched with a sharp blade. Approximately 0.2 ml venous blood was dropped to a capillary blood collection tube containing lithium heparin (Ram Scientific). Blood samples were centrifuged at 2500 rpm for 20 min. The supernatant was collected and stored at −80° C. until assay. The EtOH content of each blood sample was measured in duplicate along with EtOH standards using the alcohol oxidase reaction procedures (EnzyChrom™ Ethanol Acid Assay Kit, ECET-100) (Liang et al., 2007). The sample preparations were the same as described above.

Balb/C mice [4] = assay: Anti-alcoholism test (agent 30 min after alcohol); format: in vivo
Text: Anti-Alcoholism Tests • Groups design and treatment before experiment are as the same as that in Deintoxication test. […]

Balb/C mice [5] = assay: Climbing net test; format: in vivo; settings: 2 mg/kg gavage 30 min before alcohol; vertical metal net
Procedure: Climbing Net Test • Groups design and treatment before experiment are as the same as that in deintoxication test. […] 30 minutes later all mice administrated alcohol (liquid Erguotou, ethonol concentration was diluted to 30%) 0.2 mL/kg BW and placed on a vertical metal net and measured the time when mice climbed on net.

Balb/C mice [6] = assay: Deintoxication test (agent 30 min before alcohol)
mice [7] = assay: Acute toxicity, intragastric administration (maximum tolerated dose); settings: for average body weight of mice / dietary change-by-day of mice: PDHM MTD 3750 mg/kg i.g.
[8] = 2 mg/kg gavage 30 min after 30% ethanol
[9] = 2 mg/kg gavage 30 min after 30% ethanol, 20 mice
[10] = 2 mg/kg gavage 30 min before 30% ethanol
[11] = agents intragastric 30 minutes before drinking

O=C1c2c(O)cc(O)cc2O[C@H](c2cc(O)c(O)c(O)c2)[C@H]1O [PDHM, piperidinium 2,3-dihydroxy-5-((2R,3R)-3,5,7-trihydroxy-4-oxochroman-2-yl)phenolate]
LD50 at 7 days ([1]; read-out: 95% confidence limit of LD50): 743 to 755 mg/kg | LD50 at 7 days ([1]; read-out: LD50): 902 mg/kg | Dead number (mice [2]; PDHM 853.27 mg/kg i.p.): 0 | mortality (mice [2]; PDHM 853.27 mg/kg i.p.): 0% | average dietary of mice (mice [2]; PDHM 853.27 mg/kg i.p., D1): 3.79 g | average dietary of mice (mice [2]; PDHM 853.27 mg/kg i.p., D2): 4.58 g | average dietary of mice (mice [2]; PDHM 853.27 mg/kg i.p., D3): 3.6 g | average dietary of mice (mice [2]; PDHM 853.27 mg/kg i.p., D4): 4.92 g | average dietary of mice (mice [2]; PDHM 853.27 mg/kg i.p., D5): 5.76 g | average dietary of mice (mice [2]; PDHM 853.27 mg/kg i.p., D6): 5.31 g | average dietary of mice (mice [2]; PDHM 853.27 mg/kg i.p., D7): 5.83 g | Dead number (mice [2]; PDHM 874.6 mg/kg i.p.): 6 | mortality (mice [2]; PDHM 874.6 mg/kg i.p.): 30% | average dietary of mice (mice [2]; PDHM 874.6 mg/kg i.p., D1): 3.91 g | average dietary of mice (mice [2]; PDHM 874.6 mg/kg i.p., D2): 4.73 g | average dietary of mice (mice [2]; PDHM 874.6 mg/kg i.p., D3): 5.81 g | average dietary of mice (mice [2]; PDHM 874.6 mg/kg i.p., D4): 5.43 g | average dietary of mice (mice [2]; PDHM 874.6 mg/kg i.p., D5): 4.97 g | average dietary of mice (mice [2]; PDHM 874.6 mg/kg i.p., D6): 5.88 g | average dietary of mice (mice [2]; PDHM 874.6 mg/kg i.p., D7): 5.72 g | Dead number (mice [2]; PDHM 896.47 mg/kg i.p.): 10 | mortality (mice [2]; PDHM 896.47 mg/kg i.p.): 50% | average dietary of mice (mice [2]; PDHM 896.47 mg/kg i.p., D1): 3.35 g | average dietary of mice (mice [2]; PDHM 896.47 mg/kg i.p., D2): 4.92 g | average dietary of mice (mice [2]; PDHM 896.47 mg/kg i.p., D3): 5.78 g | average dietary of mice (mice [2]; PDHM 896.47 mg/kg i.p., D4): 6.04 g | average dietary of mice (mice [2]; PDHM 896.47 mg/kg i.p., D5): 5.72 g | average dietary of mice (mice [2]; PDHM 896.47 mg/kg i.p., D6): 5.34 g | average dietary of mice (mice [2]; PDHM 896.47 mg/kg i.p., D7): 5.65 g | Dead number (mice [2]; PDHM 918.88 mg/kg i.p.): 12 | mortality (mice [2]; PDHM 918.88 mg/kg i.p.): 60% | average dietary of mice (mice [2]; PDHM 918.88 mg/kg i.p., D1): 4.21 g | average dietary of mice (mice [2]; PDHM 918.88 mg/kg i.p., D2): 4.79 g | average dietary of mice (mice [2]; PDHM 918.88 mg/kg i.p., D3): 5.21 g | average dietary of mice (mice [2]; PDHM 918.88 mg/kg i.p., D4): 6.08 g | average dietary of mice (mice [2]; PDHM 918.88 mg/kg i.p., D5): 5.83 g | average dietary of mice (mice [2]; PDHM 918.88 mg/kg i.p., D6): 6.24 g | average dietary of mice (mice [2]; PDHM 918.88 mg/kg i.p., D7): 5.13 g | Dead number (mice [2]; PDHM 941.85 mg/kg i.p.): 18 | mortality (mice [2]; PDHM 941.85 mg/kg i.p.): 90% | average dietary of mice (mice [2]; PDHM 941.85 mg/kg i.p., D1): 4.76 g | average dietary of mice (mice [2]; PDHM 941.85 mg/kg i.p., D2): 3.92 g | average dietary of mice (mice [2]; PDHM 941.85 mg/kg i.p., D3): 4.66 g | average dietary of mice (mice [2]; PDHM 941.85 mg/kg i.p., D4): 5.82 g | average dietary of mice (mice [2]; PDHM 941.85 mg/kg i.p., D5): 6.15 g | average dietary of mice (mice [2]; PDHM 941.85 mg/kg i.p., D6): 5.79 g | average dietary of mice (mice [2]; PDHM 941.85 mg/kg i.p., D7): 5.43 g | Dead number (mice [2]; PDHM 965.4 mg/kg i.p.): 20 | mortality (mice [2]; PDHM 965.4 mg/kg i.p.): 100% | average dietary of mice (mice [2]; PDHM 965.4 mg/kg i.p., D1): 0 g | average dietary of mice (mice [2]; PDHM 965.4 mg/kg i.p., D2): 0 g | average dietary of mice (mice [2]; PDHM 965.4 mg/kg i.p., D3): 0 g | average dietary of mice (mice [2]; PDHM 965.4 mg/kg i.p., D4): 0 g | average dietary of mice (mice [2]; PDHM 965.4 mg/kg i.p., D5): 0 g | average dietary of mice (mice [2]; PDHM 965.4 mg/kg i.p., D6): 0 g | average dietary of mice (mice [2]; PDHM 965.4 mg/kg i.p., D7): 0 g | effect on dietary and body weight (mice [2]; mice): no significant effect | LD50 (mice [2]; mice, i.p., observed 7 days): 888.79 to 914.58 mg/kg and 748.69 mg/kg | blood alcohol concentration vs control group treated with saline (Balb/C mice [3]): significantly decreased | reduction of blood alcohol concentration compared with DHM (Balb/C mice [3]): better beneficial effect than DHM | Sleep time M ± SD (Balb/C mice [4]; [8]): 107.71 ± 36.87*^& min | Tolerance time M ± SD (Balb/C mice [4]; [8]): 22.14 ± 15 min | Dead number (Balb/C mice [4]; [9]): 2 piece | Rate of drunk (Balb/C mice [4]; [9]): 10% | sleep time in drunk mice comparing with DHM (Balb/C mice [4]; 2 mg/kg gavage 30 min after alcohol): remarkably shorten | climbing (Balb/C mice [5]): 392.25 ± 76.67^#& min | Sleep time M ± SD (Balb/C mice [6]; [10]): 125.33 ± 33.75 min | Tolerance time M ± SD (Balb/C mice [6]; [10]): 25.43 ± 10.80 min | Dead number (Balb/C mice [6]; 2 mg/kg gavage 30 min before 30% ethanol, 20 mice): 2 piece | holding time comparing with DHM (Balb/C mice [6]; [11]): shorten | tolerance time of righting reflex disappearing comparing with DHM (Balb/C mice [6]; [11]): obviously prolonged | average body weight of mice (mice [7]; D1): 1.97 g | dietary change-by-day of mice (mice [7]; D1): 5.98 g | average body weight of mice (mice [7]; D2): 3.47 g | dietary change-by-day of mice (mice [7]; D2): 6.1 g | average body weight of mice (mice [7]; D3): 4.77 g | dietary change-by-day of mice (mice [7]; D3): 6.03 g | average body weight of mice (mice [7]; D4): 6.37 g | dietary change-by-day of mice (mice [7]; D4): 6.14 g | average body weight of mice (mice [7]; D5): 7.38 g | dietary change-by-day of mice (mice [7]; D5): 6.48 g | average body weight of mice (mice [7]; D6): 8.41 g | dietary change-by-day of mice (mice [7]; D6): 6.32 g | average body weight of mice (mice [7]; D7): 9.67 g | dietary change-by-day of mice (mice [7]; D7): 6.57 g | pathological examination of stomach, liver, kidney (mice [7]; mice at MTD, end of 7-day observation): no obvious degeneration, necrosis and other changes | pathology changes in livers, kidneys, hearts and lungs (mice [7]; mice of the toxicity experiments): No degeneration and necrosis pathology changes | deaths in preliminary experiments (mice [7]; mice, different doses, gavage once, observed 7 days): no deaths occurred | deaths during the observation period at MTD (mice [7]; mice, gavage three times a day, 7 days): No deaths

— patent US9139551B2, “Preparation of a new class of water-soluble ammonium 2,3-dihydroxy-5-((2R,3R)-3,5,7-trihydroxy-4-oxochroman-2-yl) phenolates and their biological activity of alcohol elimination” (priority 2014, dated 2015)
